Reference: ChEMBL document CHEMBL1201862, “PubChem BioAssay data set” (2004)
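96-well plates; 48 h exposure; 5 concentrations. Endpoints by linear interpolation between flanking doses. Not reached: highest tested concentration assigned. GI50: concentration for 50% inhibition of growth.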 Activity calls are given as the source filed them. Rule as the data show it: active = GI50 up to about 1.1 µM and inactive = higher.

Legend:
Experiment in all cases: DTP human tumour cell line panel, 48 h
[1] = tested on: HCC 2998
[2] = tested on: OVCAR-4
[3] = tested on: SK-MEL-5
[4] = tested on: SN12C
[5] = tested on: SR
[6] = tested on: M19-MEL
[7] = tested on: SW-620
[8] = tested on: SF-539
[9] = tested on: A549
[10] = tested on: IGROV-1
[11] = tested on: UACC-257
[12] = tested on: SNB-19
[13] = tested on: HCT-116
[14] = tested on: HCT-15
[15] = tested on: OVCAR-3
[16] = tested on: SF-268
[17] = tested on: UO-31
[18] = tested on: Malme-3M
[19] = tested on: K562
[20] = tested on: COLO 205
[21] = tested on: HOP-62
[22] = tested on: A498
[23] = tested on: HT-29
[24] = tested on: RXF 393
[25] = tested on: NCI-H460
[26] = tested on: EKVX
[27] = tested on: MOLT-4
[28] = tested on: SF-295
[29] = tested on: SK-MEL-28
[30] = tested on: NCI-H522
[31] = tested on: OVCAR-5
[32] = tested on: HOP-92
[33] = tested on: NCI-H226
[34] = tested on: SK-MEL-2
[35] = tested on: LXFL 529
[36] = tested on: UACC-62
[37] = tested on: SNB-78
[38] = tested on: SK-OV-3
[39] = tested on: LOX IMVI
[40] = tested on: OVCAR-8
[41] = tested on: CCRF-CEM
[42] = tested on: NCI-H23
[43] = tested on: ACHN
[44] = tested on: KM12
[45] = tested on: U-251
[46] = tested on: DLD-1
[47] = tested on: 786-0
[48] = tested on: CAKI-1
[49] = tested on: RPMI-8226
[50] = tested on: HL-60
[51] = tested on: NCI/ADR-RES
[52] = tested on: DMS-273
[53] = tested on: TK-10
[54] = tested on: M14
[55] = tested on: DMS-114
[56] = tested on: HOP-18
[57] = tested on: SNB-75
[58] = tested on: KM-20L2

With `CN/N=C(/CC(=O)c1sc(-n2nc(-c3ccccc3)cc2-c2ccccc2)nc1C)C(=O)Nc1ccc(Cl)c(Cl)c1` the GI50 [1] was 44.3 µM (inactive), the GI50 [2] was 52.6 µM (inactive) and the GI50 [3] was 18 µM (inactive). The GI50 [4] was 66.5 µM (inactive), the GI50 [5] was 29.3 µM (inactive) and the GI50 [6] was 42.5 µM (inactive). For the same molecule, the GI50 [7] was 57.5 µM (inactive), the GI50 [8] was 40.2 µM (inactive) and the GI50 [9] was 37.9 µM (inactive). The GI50 [10] was 61 µM (inactive), the GI50 [11] was 30.6 µM (inactive) and the GI50 [12] was > 100 µM (inactive). The GI50 [13] was 34.5 µM (inactive), the GI50 [14] was 31.3 µM and the GI50 [15] was 38.7 µM (inactive). For the same molecule, the GI50 [16] was 35.2 µM (inactive), the GI50 [17] was 21.2 µM (inactive) and the GI50 [18] was 78.3 µM (inactive). For the same molecule, the GI50 [19] was 20.4 µM (inactive), the GI50 [20] was 28.9 µM (inactive) and the GI50 [21] was 19.4 µM (inactive). For the same molecule, the GI50 [22] was 16.1 µM (inactive), the GI50 [23] was 25.9 µM (inactive) and the GI50 [24] was 26.2 µM (inactive). The GI50 [25] was 57.3 µM (inactive), the GI50 [26] was 0.787 µM (active) and the GI50 [27] was 16.7 µM (inactive). For the same molecule, the GI50 [28] was 25.3 µM (inactive), the GI50 [29] was 55.1 µM (inactive) and the GI50 [30] was 28.1 µM (inactive). The GI50 [31] was 16.1 µM (inactive), the GI50 [32] was 14.1 µM (inactive) and the GI50 [33] was 17.2 µM (inactive). For the same molecule, the GI50 [34] was > 100 µM (inactive), the GI50 [35] was 26.3 µM (inactive) and the GI50 [36] was 26.5 µM (inactive). For the same molecule, the GI50 [37] was 14 µM (inactive), the GI50 [38] was 24.6 µM (inactive) and the GI50 [39] was 22.5 µM (inactive). For the same molecule, the GI50 [40] was 51.1 µM (inactive), the GI50 [41] was 27.7 µM (inactive) and the GI50 [42] was 23.7 µM (inactive). For the same molecule, the GI50 [43] was 25.1 µM (inactive), the GI50 [44] was 41.7 µM (inactive) and the GI50 [45] was 24.6 µM (inactive). For the same molecule, the GI50 [46] was 37.6 µM (inactive), the GI50 [47] was 39.3 µM (inactive) and the GI50 [48] was 14.7 µM (inactive). The GI50 [49] was 40.1 µM (inactive).
In the case of `O=C(O)/C=C/c1c[nH]c(=O)[nH]c1=O`, the GI50 [1] is reported as > 250 µM (inactive), the GI50 [3] is reported as > 250 µM (inactive) and the GI50 [7] is reported as > 250 µM (inactive). The GI50 [8] was > 250 µM (inactive), the GI50 [10] was > 250 µM (inactive) and the GI50 [11] was > 250 µM (inactive). For the same molecule, the GI50 [12] was > 250 µM (inactive), the GI50 [13] was > 250 µM (inactive) and the GI50 [14] was over 250 µM. For the same molecule, the GI50 [15] was > 250 µM (inactive), the GI50 [16] was > 250 µM (inactive) and the GI50 [17] was > 250 µM (inactive). The GI50 [18] was > 250 µM (inactive), the GI50 [20] was > 250 µM (inactive) and the GI50 [50] was 237 µM (inactive). The GI50 [25] was > 250 µM (inactive), the GI50 [26] was > 250 µM (inactive) and the GI50 [27] was > 250 µM (inactive). For the same molecule, the GI50 [28] was 129 µM (inactive), the GI50 [29] was > 250 µM (inactive) and the GI50 [30] was > 250 µM (inactive). For the same molecule, the GI50 [33] was > 250 µM (inactive), the GI50 [34] was > 250 µM (inactive) and the GI50 [36] was > 250 µM (inactive). For the same molecule, the GI50 [51] was > 250 µM (inactive), the GI50 [37] was > 250 µM (inactive) and the GI50 [39] was > 250 µM (inactive). The GI50 [40] was > 250 µM (inactive), the GI50 [41] was > 250 µM (inactive) and the GI50 [44] was > 250 µM (inactive). For the same molecule, the GI50 [45] was > 250 µM (inactive), the GI50 [46] was > 250 µM (inactive) and the GI50 [49] was > 250 µM (inactive).
For `CCN(CC)CSc1nc2ccccc2[nH]1`, the GI50 [5] was > 100 µM (inactive), the GI50 [9] was > 100 µM (inactive) and the GI50 [10] was > 100 µM (inactive). For the same molecule, the GI50 [11] was > 100 µM (inactive), the GI50 [12] was > 100 µM (inactive) and the GI50 [13] was > 100 µM (inactive). For the same molecule, the GI50 [17] was > 100 µM (inactive), the GI50 [21] was > 100 µM (inactive) and the GI50 [22] was > 100 µM (inactive). The GI50 [23] was > 100 µM (inactive), the GI50 [50] was > 100 µM (inactive) and the GI50 [24] was > 100 µM (inactive). The GI50 [52] was > 100 µM (inactive), the GI50 [25] was > 100 µM (inactive) and the GI50 [53] was > 100 µM (inactive). For the same molecule, the GI50 [26] was > 100 µM (inactive), the GI50 [27] was > 100 µM (inactive) and the GI50 [28] was > 100 µM (inactive). The GI50 [29] was > 100 µM (inactive), the GI50 [30] was > 100 µM (inactive) and the GI50 [31] was > 100 µM (inactive). The GI50 [32] was > 100 µM (inactive), the GI50 [33] was > 100 µM (inactive) and the GI50 [54] was > 100 µM (inactive). For the same molecule, the GI50 [37] was > 100 µM (inactive), the GI50 [38] was > 100 µM (inactive) and the GI50 [40] was > 100 µM (inactive). The GI50 [55] was > 100 µM (inactive), the GI50 [41] was > 100 µM (inactive) and the GI50 [42] was > 100 µM (inactive). The GI50 [43] was > 100 µM (inactive), the GI50 [44] was > 100 µM (inactive) and the GI50 [45] was > 100 µM (inactive).
`CC1C(/C=C/c2ccoc2)ON2CCCC12` (stereo unspecified) was tested, and the GI50 [1] was > 100 µM (inactive), the GI50 [2] was > 100 µM (inactive) and the GI50 [56] was > 100 µM (inactive). For the same molecule, the GI50 [4] was > 100 µM (inactive), the GI50 [6] was > 100 µM (inactive) and the GI50 [7] was > 100 µM (inactive). The GI50 [57] was > 100 µM (inactive), the GI50 [8] was > 100 µM (inactive) and the GI50 [11] was > 100 µM (inactive). The GI50 [12] was > 100 µM (inactive), the GI50 [16] was > 100 µM (inactive) and the GI50 [17] was > 100 µM (inactive). For the same molecule, the GI50 [18] was 54.2 µM (inactive), the GI50 [20] was > 100 µM (inactive) and the GI50 [21] was > 10 µM (inactive). The GI50 [23] was > 100 µM (inactive), the GI50 [50] was > 100 µM (inactive) and the GI50 [24] was 35.6 µM (inactive). For the same molecule, the GI50 [52] was > 100 µM (inactive), the GI50 [25] was > 100 µM (inactive) and the GI50 [53] was > 100 µM (inactive). The GI50 [26] was > 100 µM (inactive), the GI50 [58] was > 100 µM (inactive) and the GI50 [28] was > 100 µM (inactive). For the same molecule, the GI50 [29] was > 100 µM (inactive), the GI50 [30] was > 100 µM (inactive) and the GI50 [31] was > 100 µM (inactive). For the same molecule, the GI50 [32] was 17.8 µM (inactive), the GI50 [33] was > 100 µM (inactive) and the GI50 [34] was > 100 µM (inactive). The GI50 [35] was > 100 µM (inactive), the GI50 [54] was > 10 µM (inactive) and the GI50 [37] was > 100 µM (inactive). For the same molecule, the GI50 [39] was > 100 µM (inactive), the GI50 [40] was > 100 µM (inactive) and the GI50 [42] was > 100 µM (inactive). For the same molecule, the GI50 [43] was > 100 µM (inactive), the GI50 [45] was > 100 µM (inactive) and the GI50 [46] was > 100 µM (inactive). The GI50 [47] was > 100 µM (inactive) and the GI50 [48] was > 100 µM (inactive).
In the case of `COc1cc([C@@H]2c3cc4c(cc3[C@@H](NCCCN(C)C)[C@H]3COC(=O)[C@H]23)OCO4)cc(OC)c1O`, the GI50 [1] is reported as 0.838 µM (active), the GI50 [3] is reported as 0.212 µM (active) and the GI50 [6] is reported as 0.53 µM (active). For the same molecule, the GI50 [7] was 0.346 µM (active), the GI50 [8] was 0.376 µM (active) and the GI50 [9] was 0.142 µM (active). The GI50 [10] was 0.653 µM (active), the GI50 [12] was 0.22 µM (active) and the GI50 [13] was 0.658 µM (active). The GI50 [14] was 0.513 µM, the GI50 [15] was 0.849 µM (active) and the GI50 [17] was 0.423 µM (active). For the same molecule, the GI50 [18] was 0.379 µM (active), the GI50 [23] was 0.916 µM (active) and the GI50 [50] was 0.0582 µM (active). For the same molecule, the GI50 [52] was 0.164 µM (active), the GI50 [25] was 0.0232 µM (active) and the GI50 [26] was 0.745 µM (active). The GI50 [58] was 0.716 µM (active), the GI50 [27] was 0.0222 µM (active) and the GI50 [28] was 0.0995 µM (active). For the same molecule, the GI50 [30] was 0.637 µM (active), the GI50 [31] was 1.15 µM (inactive) and the GI50 [38] was 0.137 µM (active). The GI50 [39] was 0.181 µM (active), the GI50 [41] was 0.098 µM (active) and the GI50 [43] was 0.076 µM (active). For the same molecule, the GI50 [44] was 0.769 µM (active), the GI50 [45] was 0.242 µM (active) and the GI50 [49] was 0.525 µM (active).
